Source: PMC9029893 (International Journal of Molecular Sciences, 2022)

Key:
Type in all cases: biochemical
[1] = tested on: human plasma (platelet poor plasma); assay: Basic coagulation tests: PT, INR, APTT, TT; conditions: for TT: thrombin 3.0 UNIH/mL
Description: The blood was collected into vacuum tubes stuffed with 3.2% buffered sodium citrate. Platelet poor plasma (PPP) was obtained by centrifugation at 3000× g for 10 min at room temperature using a Micro 22R centrifuge (Hettich Zentrifugen, Tuttlingen, Germany). The obtained PPP was stored in small aliquots for up to one month at –30° C. Before each experiment, PPP was restored at 37 °C for 15 min. Once thawed, the PPP was not frozen again nor used for retesting.
The effects of biguanidines (1–5) on the basic coagulation parameters (PT, INR, APTT, and TT) were carried out using a CoagChrom-3003 coagulometer (Bio-Ksel, Grudziądz, Poland), according to the routine laboratory diagnostic procedure. The studies were performed in multiplicate (n = 4–7). The control samples containing distilled water and methanol (1:1) were also included.
The results are presented as mean ± standard deviation (SD). The methods were validated, and coefficients of variability for all experiments were calculated (PT: CV = 10.25%, APTT: CV = 8.55%, TT: CV = 4.87%). The reference values for each test are as follows: PT: 9.7–14.6 s; APTT: 26.7–40.0 s; TT: 14.0–18.0 s for 3.0 UNIH/mL of thrombin.

[2] = tested on: clot formation and fibrinolysis in human citrate plasma; assay: Clot formation and fibrinolysis test (CL-test)
Description: The effects of the […] on overall hemostasis potential by means of clot formation and fibrinolysis test (CL-test) were further tested based on the continuous measurement of the changes in optical transmittance over time, as described by Kostka et al. and Sikora et al.. These experiments were conducted using 470 µL of three-fold diluted human citrate plasma, 10 µL of the tested compounds, and 10 µL t-PA (final concentration in a sample 220 ng/mL). The clot formation was triggered by thrombin (10 µL, final concentration 0.5 IU/mL). The clot formation and lysis curves were determined at a wavelength of 405 nm with a spectrophotometer (Cecil CE 2021; London, UK) with circulating thermostated water (37 °C) and a Model 300 Electronic Stirrer (Rank Brothers Ltd., Cambridge, UK). The experiments were conducted in multiplicate (n = 5–7), and the results are presented as mean ± SD.
The received graphs were analyzed using dedicated software to determine the kinetic parameters of clot formation, stabilization, and fibrinolysis. The following parameters of clot formation were determined: Tt—thrombin time (s), Fmax—maximum clotting (%T), Tf—plasma clotting time (s), Fvo—initial plasma clotting velocity (%T/min), Sr—area under the clot formation curve (%Txmin). The parameters of the clot stabilization phase comprised Tc—clot stabilization time (s), Sc—area under the curve of stable clot formation (%Txmin). The parameters of fibrinolysis comprised Lmax—maximum lysis (%T), Tl—fibrinolysis time (s), Lvo—initial clot fibrinolysis velocity (%T/min), Sf—area under the fibrinolysis curve (%Txmin). Additionally, the overall potential of clot formation and fibrinolysis (CLAUC, (%Txmin)) and total time of the process of clot formation and fibrinolysis (T, (s)) were also estimated.

factor X = target: T1, factor X (Homo sapiens, UniProt P00742); assay: Factor X activity
T1 construct: 50 µL of four-fold diluted PPP, 50 μL of deficient plasma factor X, 10 μL of the examined compound; from tissue; host or cells: platelet-poor plasma (PPP), mixed with factor X-depleted plasma (Bio-Ksel)
Description: The activity of FX was measured optically using deficient plasma factor X [75]. The content of each sample was as follows: 50 µL of four-fold diluted PPP, 50 μL of deficient plasma factor X, 10 μL of the examined compound, and 100 µL PT reagent. The control samples contained 10 μL of distilled water and methanol (1:1). The measurement of PT time was recorded using a CoagChrom-3003 coagulometer (Bio-Ksel, Grudziadz, Poland). The activity of factor X was counted using a calibration curve (R^2 = 0.999) performed on a calibrator diluted in the range 1:5–1:80 [76]. The variation in plasma coagulation time is proportional to the concentration and activity of factor X in the patient plasma treated with the tested compounds. The coefficient of variability for the method was calculated as CV = 1.80%. The reference values for factor X activity ranged from 77–131%.

T1 sequence (P00742 41-488): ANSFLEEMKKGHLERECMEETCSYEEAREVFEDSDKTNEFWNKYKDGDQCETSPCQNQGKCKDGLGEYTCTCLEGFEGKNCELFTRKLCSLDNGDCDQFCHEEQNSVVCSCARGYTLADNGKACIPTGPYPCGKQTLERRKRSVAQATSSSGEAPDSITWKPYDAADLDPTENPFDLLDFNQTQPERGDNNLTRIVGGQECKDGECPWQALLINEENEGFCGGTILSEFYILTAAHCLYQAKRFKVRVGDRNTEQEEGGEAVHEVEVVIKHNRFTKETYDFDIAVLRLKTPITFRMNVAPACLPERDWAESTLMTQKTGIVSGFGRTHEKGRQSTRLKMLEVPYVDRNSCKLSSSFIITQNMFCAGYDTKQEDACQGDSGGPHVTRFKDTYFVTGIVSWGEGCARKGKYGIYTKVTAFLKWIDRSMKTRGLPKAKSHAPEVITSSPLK

Factor X activity (factor X; 0.3 mM): 107.40 ± 6.19%
Factor X activity (factor X; 0.6 mM): 104.00 ± 5.34%
Factor X activity (factor X; 1.5 mM): 107.00 ± 4.00%
SMILES: CCCCCCCCS(=O)(=O)NC(N)=NC(=N)N(C)C [Compound 2]
APTT ([1]; 0.006 mM): 30.79 ± 5.87 s
INR ([1]; 0.006 mM): 1.07 ± 0.15
PT ([1]; 0.006 mM): 13.30 ± 1.81 s
TT ([1]; 0.006 mM): 14.14 ± 0.59 s
APTT ([1]; 0.06 mM): 31.33 ± 5.53 s
INR ([1]; 0.06 mM): 1.03 ± 0.10
PT ([1]; 0.06 mM): 12.82 ± 1.33 s
TT ([1]; 0.06 mM): 13.86 ± 0.80 s
APTT ([1]; 0.3 mM): 33.49 ± 4.85 s
INR ([1]; 0.3 mM): 1.05 ± 0.11
PT ([1]; 0.3 mM): 13.10 ± 1.37 s
TT ([1]; 0.3 mM): 13.48 ± 2.10 s
APTT ([1]; 0.6 mM): 33.46 ± 5.59 s
INR ([1]; 0.6 mM): 1.04 ± 0.11
PT ([1]; 0.6 mM): 12.96 ± 1.42 s
TT ([1]; 0.6 mM): 14.40 ± 2.35 s
APTT ([1]; 1.5 mM): 34.83 ± 6.22 s
INR ([1]; 1.5 mM): 1.06 ± 0.10
PT ([1]; 1.5 mM): 13.20 ± 1.23 s
TT ([1]; 1.5 mM): 16.32 ± 2.21 s
Fmax—maximum clotting ([2]; 0.06 mM): 66.77 ± 5.68 %T
Fvo—initial plasma clotting velocity ([2]; 0.06 mM): 203.43 ± 22.00 %T/min
Lmax—maximum lysis ([2]; 0.06 mM): 67.40 ± 5.38 %T
Lvo—initial clot fibrinolysis velocity ([2]; 0.06 mM): 22.29 ± 4.30 %T/min
Sc—area under the curve of a stable clot formation ([2]; 0.06 mM): 323.20 ± 94.05 %T x min
Sf—area under the clot formation curve ([2]; 0.06 mM): 44.40 ± 9.07 %T x min
Sl (area under the fibrinolysis curve) ([2]; 0.06 mM): 148.45 ± 47.41 %T x min
S—overall potential of clot formation and fibrinolysis (CLAUC) ([2]; 0.06 mM): 516.05 ± 146.55 %T x min
Tc—clot stabilization time ([2]; 0.06 mM): 296.57 ± 72.31 s
Tf—plasma clotting time ([2]; 0.06 mM): 56.56 ± 8.57 s
Tl—fibrinolysis time ([2]; 0.06 mM): 240.14 ± 65.11 s
Tt—thrombin time ([2]; 0.06 mM): 16.86 ± 4.24 s
T—total time of the process of clot formation and fibrinolysis ([2]; 0.06 mM): 610.13 ± 145.50 s
Fmax—maximum clotting ([2]; 0.3 mM): 68.99 ± 5.55 %T
Fvo—initial plasma clotting velocity ([2]; 0.3 mM): 194.00 ± 48.64 %T/min
Lmax—maximum lysis ([2]; 0.3 mM): 69.49 ± 5.34 %T
Lvo—initial clot fibrinolysis velocity ([2]; 0.3 mM): 19.83 ± 6.57 %T/min
Sc—area under the curve of a stable clot formation ([2]; 0.3 mM): 344.01 ± 74.34 %T x min
Sf—area under the clot formation curve ([2]; 0.3 mM): 46.00 ± 9.83 %T x min
Sl (area under the fibrinolysis curve) ([2]; 0.3 mM): 153.63 ± 43.80 %T x min
S—overall potential of clot formation and fibrinolysis (CLAUC) ([2]; 0.3 mM): 543.64 ± 122.37 %T x min
Tc—clot stabilization time ([2]; 0.3 mM): 309.14 ± 68.74 s
Tf—plasma clotting time ([2]; 0.3 mM): 59.24 ± 16.26 s
Tl—fibrinolysis time ([2]; 0.3 mM): 252.00 ± 73.00 s
Tt—thrombin time ([2]; 0.3 mM): 17.54 ± 5.79 s
T—total time of the process of clot formation and fibrinolysis ([2]; 0.3 mM): 637.93 ± 155.22 s
Fmax—maximum clotting ([2]; 0.6 mM): 67.40 ± 9.57 %T
Fvo—initial plasma clotting velocity ([2]; 0.6 mM): 214.14 ± 50.85 %T/min
Lmax—maximum lysis ([2]; 0.6 mM): 68.19 ± 9.82 %T
Lvo—initial clot fibrinolysis velocity ([2]; 0.6 mM): 20.37 ± 7.03 %T/min
Sc—area under the curve of a stable clot formation ([2]; 0.6 mM): 344.82 ± 65.62 %T x min
Sf—area under the clot formation curve ([2]; 0.6 mM): 44.34 ± 10.50 %T x min
Sl (area under the fibrinolysis curve) ([2]; 0.6 mM): 143.77 ± 40.07 %T x min
S—overall potential of clot formation and fibrinolysis (CLAUC) ([2]; 0.6 mM): 532.93 ± 111.10 %T x min
Tc—clot stabilization time ([2]; 0.6 mM): 319.00 ± 63.63 s
Tf—plasma clotting time ([2]; 0.6 mM): 55.80 ± 11.60 s
Tl—fibrinolysis time ([2]; 0.6 mM): 247.43 ± 74.21 s
Tt—thrombin time ([2]; 0.6 mM): 17.57 ± 3.74 s
T—total time of the process of clot formation and fibrinolysis ([2]; 0.6 mM): 639.80 ± 148.09 s
Fmax—maximum clotting ([2]; 1.5 mM): 61.57 ± 7.24 %T
Fvo—initial plasma clotting velocity ([2]; 1.5 mM): 177.43 ± 34.91 %T/min
Lmax—maximum lysis ([2]; 1.5 mM): 62.14 ± 6.63 %T
Lvo—initial clot fibrinolysis velocity ([2]; 1.5 mM): 20.07 ± 6.59 %T/min
Sc—area under the curve of a stable clot formation ([2]; 1.5 mM): 346.35 ± 92.32 %T x min
Sf—area under the clot formation curve ([2]; 1.5 mM): 44.31 ± 12.08 %T x min
Sl (area under the fibrinolysis curve) ([2]; 1.5 mM): 133.78 ± 47.19 %T x min
S—overall potential of clot formation and fibrinolysis (CLAUC) ([2]; 1.5 mM): 524.43 ± 146.77 %T x min
Tc—clot stabilization time ([2]; 1.5 mM): 351.43 ± 96.53 s
Tf—plasma clotting time ([2]; 1.5 mM): 61.21 ± 14.65 s
Tl—fibrinolysis time ([2]; 1.5 mM): 249.14 ± 80.94 s
Tt—thrombin time ([2]; 1.5 mM): 24.37 ± 7.41 s
T—total time of the process of clot formation and fibrinolysis ([2]; 1.5 mM): 686.16 ± 190.86 s
